The record followed here is US20250207131A1, “MODIFIED RNA AGENTS WITH REDUCED OFF-TARGET EFFECT” (Alnylam Pharmaceuticals, Inc., priority 2018, published 2025).

One series relates to phosphodiesterase II. The series can be described thus: Stability toward 5′-specific exonuclease (phosphodiesterase II). Format: in vitro ADME. The settings on record: oligo 0.1 mg/mL, 50 mM NaOAc (pH 6.5), 10 mM MgCl2; for Half-lives (T1/2), ty2: Phosphodiesterase-II 500 mU/mL; for Half-lives (T1/2), t12: reduced Phosphodiesterase-II concentration 100 mU/mL. On the procedure: Stability of modified oligonucleotides toward 3′- or 5′-specific exonucleases: Oligonucleotides were prepared in a final concentration of 0.1 mg/mL in either 50 mM Tris (pH 7.2), 10 mM MgCl2 or 50 mM sodium acetate (pH 6.5), 10 mM MgCl2 for assessing the stability towards 3′- or 5′-specific exonucleases, respectively. The exonuclease (150 mU/mL SVPDE for 3′-stability or 500 mU/mL phosphodiesterase II for 5′-stability) was added immediately prior to analysis via IEX HPLC (dionex DNAPac PA200, 4×250 mm) using a gradient of 37-52% mobile phase (1 M NaBr, 20 mM sodium phosphate, pH 11, 15% MeCN; stationary phase: 20 mM sodium phosphate, 15% MeCN, pH 11) over 7.5 min with a flow of 1 mL/min. Samples were analyzed at given time points for up to 24 h. The quantity of full length oligonucleotides was determined as the area under the curve at A260. Percent full length oligonucleotides was calculated by dividing by the area under the curve at t=0 and multiplying by 100. Activity of enzyme was verified for each experiment by including a oligodeoxythymidylate with a terminal phosphorothioate linkage (5′-T19·T (SEQ ID NO: 708) or 5′-T·T19 (SEQ ID NO: 708) for 3′- or 5′-exonuclease activity, respectively). Each aliquot of enzyme was thawed just prior to the experiment. The half-life was determined by fitting to first order kinetics.
5′-Nuclease Stability:_To evaluate the 5′-exonuclease stability of enantiomerically pure (R)- and (S)-5′-C-methyl (C5′-Me) Guanosine substituted nucleosides a dT20 template sequence (“dT20” disclosed as SEQ ID NO: 1) was modified at the 5′-end with one modified nucleotide via PO or PS linkages (Table 13). The structures of the compounds are shown below with guanosine for comparison.
A dT20 template (“dT20” disclosed as SEQ ID NO: 1) having 5′end dT with PS linkages and 5′end Guanosine (G) with either PO or PS linkages were used as the control. ONs were incubated with Phosphodiesterase-II (500 mU/mL), and the half-life (T½) of each modified ON was determined by HPLC-based quantification of the full-length ON as a function of time. The results are summarized in Table 13 and HPLC stability profiles are depicted in FIGS. 24A and 24B showing decay curve of dT20 (SEQ ID NO: 1) modified at the 5′ end with Guanosine and (R) or (S)-5′-C-methyl Guanosine (C5′-MeG) with PO or PS linkages upon incubation with 5′ exonucleases-phosphodiesterase-II as a function of time. FIG. 24A is for the following conditions: a) enzyme conc. 500 mU/mL, Oligo Conc. 0.1 mg/mL, 50 mM NaOAc (pH-6.5):10 Mm MgCl2. FIG. 24B is for the following conditions: enzyme conc. 100 mU/mL, Oligo Conc. 0.1 mg/mL, 50 mM NaOAc (pH-6.5):10 mM MgCl2. The percentage full length ON is calculated by dividing the area under the peak corresponding to full length ON at a given time point by the full length at t=0 and multiplied by 100.
Stability of modified oligonucleotides toward 3′- or 5′-specific exonucleases: Modified oligonucleotides were prepared in a final concentration of 0.1 mg/mL in either 300 mM Tris (pH 7.2), 60 mM MgCl2 or 300 mM sodium acetate (pH 6.5), 60 mM MgCl2 for assessing the stability towards 3′- or 5′-specific exonucleases, respectively. […] Samples were analyzed at given time points for up to 24 h. The quantity of full length oligonucleotides was determined as the area under the curve at A260. Percent full length oligonucleotides was calculated by dividing by the area under the curve at t=0 and multiplying by 100. […]

The target in the next series is T1, DNA Pol-γ (Homo sapiens, UniProt P54098).
T1 sequence (P54098 1-1239): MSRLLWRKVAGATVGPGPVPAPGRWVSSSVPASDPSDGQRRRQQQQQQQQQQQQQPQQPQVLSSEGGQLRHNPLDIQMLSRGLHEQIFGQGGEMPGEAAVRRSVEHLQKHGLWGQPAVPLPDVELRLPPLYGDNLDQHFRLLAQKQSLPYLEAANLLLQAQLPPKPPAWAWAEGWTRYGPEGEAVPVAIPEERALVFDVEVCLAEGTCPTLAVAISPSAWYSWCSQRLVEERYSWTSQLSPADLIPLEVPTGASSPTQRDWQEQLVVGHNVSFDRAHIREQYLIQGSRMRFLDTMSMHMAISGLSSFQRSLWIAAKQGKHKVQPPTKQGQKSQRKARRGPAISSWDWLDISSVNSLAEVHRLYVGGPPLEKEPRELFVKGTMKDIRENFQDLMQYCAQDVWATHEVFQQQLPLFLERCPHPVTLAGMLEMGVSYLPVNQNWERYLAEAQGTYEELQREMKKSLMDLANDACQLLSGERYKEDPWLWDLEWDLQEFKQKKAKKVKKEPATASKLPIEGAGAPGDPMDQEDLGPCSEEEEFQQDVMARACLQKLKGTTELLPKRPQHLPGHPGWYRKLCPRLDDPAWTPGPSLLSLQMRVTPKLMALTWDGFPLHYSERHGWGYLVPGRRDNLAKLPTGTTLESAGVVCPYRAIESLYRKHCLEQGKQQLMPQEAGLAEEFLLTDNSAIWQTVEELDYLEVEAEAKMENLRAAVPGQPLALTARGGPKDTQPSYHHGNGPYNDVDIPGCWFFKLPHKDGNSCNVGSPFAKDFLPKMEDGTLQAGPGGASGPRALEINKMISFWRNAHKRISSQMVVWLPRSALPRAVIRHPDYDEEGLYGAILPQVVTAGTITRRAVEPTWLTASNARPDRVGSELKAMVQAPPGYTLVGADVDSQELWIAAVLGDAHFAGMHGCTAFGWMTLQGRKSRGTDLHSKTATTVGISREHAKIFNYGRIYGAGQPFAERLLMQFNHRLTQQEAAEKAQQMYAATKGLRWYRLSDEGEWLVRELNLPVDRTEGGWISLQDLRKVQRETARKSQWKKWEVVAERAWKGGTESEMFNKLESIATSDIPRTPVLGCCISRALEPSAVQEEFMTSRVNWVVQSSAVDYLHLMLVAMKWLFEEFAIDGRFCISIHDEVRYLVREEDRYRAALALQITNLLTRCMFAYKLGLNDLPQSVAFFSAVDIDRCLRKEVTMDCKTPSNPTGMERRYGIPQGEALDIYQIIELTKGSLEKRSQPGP
In words: Triphosphate incorporation assay by DNA Pol-γ. In kind it is biochemical. The settings on record: 100 nM template, 100 nM primer, 40 Units of enzyme, 1 mM or 100 μM dNTPs, 30 min, 37° C. The protocol: (§1) 5′-(R)- and (S)—C-Me-guanosine triphosphate Evaluations: 5′-(R)- and (S)—C-Me-guanosine triphosphate were evaluated with Pol-RMT and DNA Pol-γ. Mitochondrial toxicity is a common feature with nucleoside analog drugs (liver/metabolic effects, myopathies, peripheral neuropathy). Replication of mitochondria occurs during all phases of cell cycle, including post-mitotic cells. Mito replication in post-mitotic cells becomes preferential consumer of endogenous nucleotide pools. Mitochondrial polymerases (pol-γ, Pol-RMT) have limited exonuclease (proofreading) capability. Alterations/effects to nuclear DNA more likely to manifest in other test systems. […] Analytical IEX-HPLC with fluorescence detection for optimal resolution of primer-extended products is used to detect—especially important in competition mixtures. This assays was applied for the assessment of incorporation efficiencies.
The reaction conditions were: Reaction: 100 nM template, 100 nM primer, 40 Units of enzyme and 1 mM or 100 μM dNTPs, 30 min, 37° C.; diluted to 5 nM primer and analyzed by FLD-IEX-HPLC (Ex: 437, Em: 483 nm).

A further series has as its target Pol-RMT (Homo sapiens, UniProt O00411). The series can be described thus: Triphosphate incorporation assay by Pol-RMT. Format: biochemical. The following applies: 200 nM template, 50 nM primer, 300 nM enzyme, 1 mM or 100 μM NTPs, 30 min, 35° C. The protocol:
as §1
The reaction conditions were; 200 nM template, 50 nM primer, 300 nM enzyme and 1 mM or 100 μM NTPs, 30 min, 35° C.

In the oligonucleotide strings, read from the 5' end, every base follows the letter of its sugar. An asterisk marks phosphorothioate; unmarked linkages are phosphodiester. Other units and linkages are bracketed, terminal groups are in braces. A string of capitals states the bases alone. [5'S-Me-N] = (S)-5'-C-methyl nucleoside (N: the base); d = 2'-deoxy (DNA); r = 2'-OH (RNA) Where only a bound is given, the exact number is not on record here.

Pol-RMT, sequence (O00411 42-1230, species assumed): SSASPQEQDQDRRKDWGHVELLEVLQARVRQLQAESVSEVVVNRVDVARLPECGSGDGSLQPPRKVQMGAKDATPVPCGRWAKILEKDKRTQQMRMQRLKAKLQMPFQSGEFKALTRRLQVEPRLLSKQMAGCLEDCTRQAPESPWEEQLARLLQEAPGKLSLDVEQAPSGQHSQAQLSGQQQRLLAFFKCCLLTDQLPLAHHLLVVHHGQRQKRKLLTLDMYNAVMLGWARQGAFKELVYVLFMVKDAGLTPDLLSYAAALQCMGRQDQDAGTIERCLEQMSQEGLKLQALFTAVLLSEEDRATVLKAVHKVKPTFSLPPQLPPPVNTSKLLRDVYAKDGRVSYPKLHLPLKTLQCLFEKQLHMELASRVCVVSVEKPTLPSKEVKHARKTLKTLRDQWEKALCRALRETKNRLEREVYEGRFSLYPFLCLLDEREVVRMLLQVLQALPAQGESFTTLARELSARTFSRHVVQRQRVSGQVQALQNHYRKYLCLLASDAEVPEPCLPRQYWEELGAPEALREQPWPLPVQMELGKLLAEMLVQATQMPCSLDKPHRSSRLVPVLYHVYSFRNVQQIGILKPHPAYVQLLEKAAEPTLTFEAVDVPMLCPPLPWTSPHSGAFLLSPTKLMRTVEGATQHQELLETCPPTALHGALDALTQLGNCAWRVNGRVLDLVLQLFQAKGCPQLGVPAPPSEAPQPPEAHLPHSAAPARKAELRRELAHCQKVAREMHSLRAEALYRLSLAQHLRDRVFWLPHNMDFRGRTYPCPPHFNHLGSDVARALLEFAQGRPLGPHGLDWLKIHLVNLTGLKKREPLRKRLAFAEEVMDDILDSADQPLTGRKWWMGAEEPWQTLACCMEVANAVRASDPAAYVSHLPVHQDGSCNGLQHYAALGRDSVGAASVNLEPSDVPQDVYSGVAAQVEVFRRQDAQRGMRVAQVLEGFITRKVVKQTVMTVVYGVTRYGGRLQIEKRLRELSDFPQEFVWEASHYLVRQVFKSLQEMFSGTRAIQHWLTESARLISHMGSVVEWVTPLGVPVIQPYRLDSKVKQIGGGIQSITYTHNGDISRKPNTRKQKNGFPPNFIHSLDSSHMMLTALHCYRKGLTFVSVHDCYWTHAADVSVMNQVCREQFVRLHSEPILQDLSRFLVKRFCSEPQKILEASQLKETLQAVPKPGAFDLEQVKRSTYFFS

Turning to “GpsdT19: Gs(dT)19, 5′ guanosine, PS linkage (DNA rG*dTdTdTdTdTdTdTdTdTdTdTdTdTdTdTdTdTdTdT)”, in the series with phosphodiesterase II, the “Half-lives (T1/2), ty2” value is 41 h.
Regarding `C[C@H](OP(=O)(O)OP(=O)(O)OP(=O)(O)O)[C@H]1O[C@@H](n2cnc3c(=O)[nH]c(N)nc32)[C@H](O)[C@@H]1O` [5′-(S)—C-Me-G triphosphate (GTP), 5′-(S)—C-Me-guanosine triphosphate], the “incorporation by Pol-γ” value at DNA Pol-γ was “Neither 5′-(S) nor (R)—C-Me-Gtp incorporate in Pol-γ at high concentrations”. Further, at Pol-RMT, the “incorporation by Pol-RMT” value is “incorporates in Pol-RMT at high concentrations”.
On to “SpodT19: (G5m)(dT)19, 5′-end (S)-5′-C-methyl guanosine, PO linkage ([5'S-Me-G]dTdTdTdTdTdTdTdTdTdTdTdTdTdTdTdTdTdTdT)”, for which, in the series on phosphodiesterase II, the “Half-lives (T1/2), ty2” value is reported as under 1 h and the “Half-lives (T1/2), t12” value is under 1 h.
Regarding “GpodT19: G(dT)19, 5′ guanosine, PO linkage (DNA rGdTdTdTdTdTdTdTdTdTdTdTdTdTdTdTdTdTdTdT)”, in the series on phosphodiesterase II, the “Half-lives (T1/2), ty2” value was under 1 h and the “Half-lives (T1/2), t12” value is under 1 h.
For `C[C@@H](OP(=O)(O)OP(=O)(O)OP(=O)(O)O)[C@H]1O[C@@H](n2cnc3c(=O)[nH]c(N)nc32)[C@H](O)[C@@H]1O` [5′-(R)—C-Me-GTP, 5′-(R)—C-Me-guanosine triphosphate], on DNA Pol-γ, the “incorporation by Pol-γ” value is “Neither 5′-(S) nor (R)—C-Me-Gtp incorporate in Pol-γ at high concentrations”. Further, the “incorporation by Pol-RMT” value at Pol-RMT is on record as “appears not incorporate in Pol-RMT”.
